Test [1] deals with Mitogen-activated protein kinase 9 (Homo sapiens) (UniProt P45984). The test is described as follows: Inhibition of JNK2 at 1 uM relative to control.
The target in test [2] is Serine/threonine-protein kinase Chk2 (Homo sapiens) (UniProt O96017). Kind of test: Inhibition of CHK2 at 1 uM relative to control.
Test [3] concerns the target Glycogen synthase kinase-3 beta (Homo sapiens) (UniProt P49841). Kind of test: Inhibition of GSK3-beta at 1 uM relative to control.
Test [4] concerns the target Serine/threonine-protein kinase PAK 6 (Homo sapiens) (UniProt Q9NQU5). Kind of test: Inhibition of PAK6 at 1 uM relative to control.
Test [5] deals with [Pyruvate dehydrogenase (acetyl-transferring)] kinase isozyme 1, mitochondrial (Homo sapiens) (UniProt Q15118). Kind of test: Inhibition of PDK1 at 1 uM relative to control.
Test [6] concerns the target T1, Serine/threonine-protein kinase Sgk1 (Homo sapiens) (UniProt O00141).
T1 sequence (whole entry): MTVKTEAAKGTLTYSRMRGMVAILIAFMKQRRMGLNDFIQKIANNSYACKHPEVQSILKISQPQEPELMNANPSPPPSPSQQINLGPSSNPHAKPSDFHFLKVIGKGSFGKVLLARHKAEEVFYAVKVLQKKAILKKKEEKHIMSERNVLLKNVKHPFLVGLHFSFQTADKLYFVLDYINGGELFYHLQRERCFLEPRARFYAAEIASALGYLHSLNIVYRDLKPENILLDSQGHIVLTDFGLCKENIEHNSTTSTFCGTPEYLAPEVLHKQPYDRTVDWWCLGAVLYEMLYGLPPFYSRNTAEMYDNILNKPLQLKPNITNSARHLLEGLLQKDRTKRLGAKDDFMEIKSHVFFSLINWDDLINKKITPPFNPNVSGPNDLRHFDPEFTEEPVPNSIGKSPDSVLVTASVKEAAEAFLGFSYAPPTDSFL
Kind of test: Inhibition of SGK1 at 1 uM relative to control.

Test [7] concerns the target T2, Dual specificity tyrosine-phosphorylation-regulated kinase 2 (Homo sapiens) (UniProt Q92630).
T2 sequence (whole entry): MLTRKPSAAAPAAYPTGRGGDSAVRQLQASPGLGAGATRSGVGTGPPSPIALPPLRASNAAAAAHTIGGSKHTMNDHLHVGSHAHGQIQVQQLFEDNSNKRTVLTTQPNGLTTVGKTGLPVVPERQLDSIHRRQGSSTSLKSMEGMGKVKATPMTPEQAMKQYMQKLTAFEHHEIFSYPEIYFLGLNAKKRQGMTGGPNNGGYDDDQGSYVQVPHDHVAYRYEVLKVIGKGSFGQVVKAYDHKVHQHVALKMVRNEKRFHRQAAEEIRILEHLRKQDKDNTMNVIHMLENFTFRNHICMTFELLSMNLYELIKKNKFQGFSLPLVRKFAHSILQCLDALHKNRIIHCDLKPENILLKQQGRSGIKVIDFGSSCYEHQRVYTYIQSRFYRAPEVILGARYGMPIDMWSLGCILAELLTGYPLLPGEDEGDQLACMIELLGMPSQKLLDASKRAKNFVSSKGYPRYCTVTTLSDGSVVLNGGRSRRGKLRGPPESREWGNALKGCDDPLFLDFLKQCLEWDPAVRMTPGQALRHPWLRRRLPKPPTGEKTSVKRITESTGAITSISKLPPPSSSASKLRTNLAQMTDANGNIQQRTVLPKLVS
The test is described as follows: Inhibition of DYRK2 at 1 uM relative to control.

The target in test [8] is MAP kinase-activated protein kinase 3 (Homo sapiens) (UniProt Q16644). The test is described as follows: Inhibition of MAPKAP-K3 at 1 uM relative to control.
For test [9], the target named is SRSF protein kinase 1 (Homo sapiens) (UniProt Q96SB4). The test is described as follows: Inhibition of SRPK1 at 1 uM relative to control.
For test [10], the target named is Serine/threonine-protein kinase PAK 4 (Homo sapiens) (UniProt O96013). Kind of test: Inhibition of PAK4 at 1 uM relative to control.
Test [11] addresses MAP kinase-interacting serine/threonine-protein kinase 2 (Homo sapiens) (UniProt Q9HBH9). Kind of test: Inhibition of MNK2 at 1 uM relative to control.
Test [12] has as its target T3, Eukaryotic elongation factor 2 kinase (Homo sapiens) (UniProt O00418).
T3 sequence (whole entry): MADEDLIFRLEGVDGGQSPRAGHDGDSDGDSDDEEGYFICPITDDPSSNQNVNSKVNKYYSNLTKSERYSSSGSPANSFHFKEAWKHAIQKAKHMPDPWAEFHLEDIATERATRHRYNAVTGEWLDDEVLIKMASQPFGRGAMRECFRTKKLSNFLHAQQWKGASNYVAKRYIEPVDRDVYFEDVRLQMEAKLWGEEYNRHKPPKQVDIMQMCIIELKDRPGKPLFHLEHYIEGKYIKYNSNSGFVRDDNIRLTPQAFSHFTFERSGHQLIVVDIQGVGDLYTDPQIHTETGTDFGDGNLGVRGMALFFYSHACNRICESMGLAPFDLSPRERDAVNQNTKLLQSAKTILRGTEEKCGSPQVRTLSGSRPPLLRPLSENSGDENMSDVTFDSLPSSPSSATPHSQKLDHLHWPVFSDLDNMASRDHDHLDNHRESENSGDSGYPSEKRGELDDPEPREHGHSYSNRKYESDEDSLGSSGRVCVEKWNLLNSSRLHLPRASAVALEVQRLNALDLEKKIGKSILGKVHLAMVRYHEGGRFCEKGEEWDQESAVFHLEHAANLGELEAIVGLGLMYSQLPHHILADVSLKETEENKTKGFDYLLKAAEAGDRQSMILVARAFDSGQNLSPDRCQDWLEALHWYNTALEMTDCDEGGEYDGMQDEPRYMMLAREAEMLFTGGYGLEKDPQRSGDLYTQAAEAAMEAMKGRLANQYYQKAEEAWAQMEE
The test is described as follows: Inhibition of EFK2 at 1 uM relative to control.

Test [13] addresses Calcium/calmodulin-dependent protein kinase type 1 (Homo sapiens) (UniProt Q14012). Kind of test: Inhibition of CAMK1 at 1 uM relative to control.
Test [14] concerns the target Aurora kinase B (Homo sapiens) (UniProt Q96GD4). The test is described as follows: Inhibition of Aurora B at 1 uM relative to control.

Sequence of SRSF protein kinase 1 (Homo sapiens) (Q96SB4 whole entry): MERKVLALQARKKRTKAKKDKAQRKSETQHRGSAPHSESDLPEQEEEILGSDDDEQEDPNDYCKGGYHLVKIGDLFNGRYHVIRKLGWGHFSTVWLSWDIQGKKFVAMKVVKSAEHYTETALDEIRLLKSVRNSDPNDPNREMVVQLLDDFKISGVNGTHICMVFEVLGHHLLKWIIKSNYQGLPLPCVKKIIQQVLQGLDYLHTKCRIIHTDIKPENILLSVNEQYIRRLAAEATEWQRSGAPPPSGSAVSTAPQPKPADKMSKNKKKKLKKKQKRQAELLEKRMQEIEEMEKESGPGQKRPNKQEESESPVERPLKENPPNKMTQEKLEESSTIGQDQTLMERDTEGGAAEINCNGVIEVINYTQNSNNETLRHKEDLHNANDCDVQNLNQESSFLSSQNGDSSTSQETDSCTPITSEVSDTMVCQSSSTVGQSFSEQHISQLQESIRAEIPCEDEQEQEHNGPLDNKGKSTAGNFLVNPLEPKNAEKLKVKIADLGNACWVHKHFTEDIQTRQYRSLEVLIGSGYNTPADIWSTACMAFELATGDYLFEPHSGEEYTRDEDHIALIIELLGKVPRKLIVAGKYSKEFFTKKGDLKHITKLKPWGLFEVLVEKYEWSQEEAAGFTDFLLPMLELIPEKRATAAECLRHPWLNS
Sequence of MAP kinase-interacting serine/threonine-protein kinase 2 (Homo sapiens) (Q9HBH9 whole entry, looked up): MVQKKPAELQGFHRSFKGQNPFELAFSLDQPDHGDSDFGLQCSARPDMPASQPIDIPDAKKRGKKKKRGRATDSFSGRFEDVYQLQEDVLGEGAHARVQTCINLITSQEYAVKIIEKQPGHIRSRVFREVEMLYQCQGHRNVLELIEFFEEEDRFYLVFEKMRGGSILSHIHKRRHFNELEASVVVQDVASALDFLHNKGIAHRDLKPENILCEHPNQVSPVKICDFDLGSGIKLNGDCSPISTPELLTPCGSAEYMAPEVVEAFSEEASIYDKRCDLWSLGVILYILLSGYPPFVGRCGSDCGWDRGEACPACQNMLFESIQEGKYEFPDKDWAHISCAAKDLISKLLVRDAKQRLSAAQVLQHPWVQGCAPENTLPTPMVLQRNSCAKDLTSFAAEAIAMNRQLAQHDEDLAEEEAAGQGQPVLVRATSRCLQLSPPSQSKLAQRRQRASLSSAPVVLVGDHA
Sequence of MAP kinase-activated protein kinase 3 (Homo sapiens) (Q16644 whole entry, looked up): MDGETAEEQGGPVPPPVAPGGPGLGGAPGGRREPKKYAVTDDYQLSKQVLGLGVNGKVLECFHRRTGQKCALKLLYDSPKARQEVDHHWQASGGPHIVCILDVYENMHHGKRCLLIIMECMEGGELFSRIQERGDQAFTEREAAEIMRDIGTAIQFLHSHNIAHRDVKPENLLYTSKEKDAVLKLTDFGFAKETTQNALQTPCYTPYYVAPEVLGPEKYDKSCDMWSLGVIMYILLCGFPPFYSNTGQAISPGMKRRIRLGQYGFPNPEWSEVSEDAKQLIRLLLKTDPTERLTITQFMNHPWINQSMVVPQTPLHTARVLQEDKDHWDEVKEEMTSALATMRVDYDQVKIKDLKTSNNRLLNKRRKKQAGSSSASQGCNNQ
Sequence of Serine/threonine-protein kinase PAK 4 (Homo sapiens) (O96013 whole entry, looked up): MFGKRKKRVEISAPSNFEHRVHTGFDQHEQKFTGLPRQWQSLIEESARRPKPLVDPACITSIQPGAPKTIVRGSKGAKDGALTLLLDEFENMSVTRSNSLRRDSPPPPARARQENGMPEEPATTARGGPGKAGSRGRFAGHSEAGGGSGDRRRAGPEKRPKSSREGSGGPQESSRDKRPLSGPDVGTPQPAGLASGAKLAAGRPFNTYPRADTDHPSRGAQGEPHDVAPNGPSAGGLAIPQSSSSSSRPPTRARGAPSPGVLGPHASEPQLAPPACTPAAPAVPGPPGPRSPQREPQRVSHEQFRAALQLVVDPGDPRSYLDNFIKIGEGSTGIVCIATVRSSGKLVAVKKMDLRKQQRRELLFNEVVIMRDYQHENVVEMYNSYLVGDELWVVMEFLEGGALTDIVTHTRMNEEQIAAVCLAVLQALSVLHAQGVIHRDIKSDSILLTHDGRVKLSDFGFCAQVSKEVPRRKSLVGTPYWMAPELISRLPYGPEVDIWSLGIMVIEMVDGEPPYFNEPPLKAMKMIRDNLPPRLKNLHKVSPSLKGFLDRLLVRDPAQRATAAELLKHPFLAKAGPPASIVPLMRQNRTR
Sequence of Aurora kinase B (Homo sapiens) (Q96GD4 whole entry): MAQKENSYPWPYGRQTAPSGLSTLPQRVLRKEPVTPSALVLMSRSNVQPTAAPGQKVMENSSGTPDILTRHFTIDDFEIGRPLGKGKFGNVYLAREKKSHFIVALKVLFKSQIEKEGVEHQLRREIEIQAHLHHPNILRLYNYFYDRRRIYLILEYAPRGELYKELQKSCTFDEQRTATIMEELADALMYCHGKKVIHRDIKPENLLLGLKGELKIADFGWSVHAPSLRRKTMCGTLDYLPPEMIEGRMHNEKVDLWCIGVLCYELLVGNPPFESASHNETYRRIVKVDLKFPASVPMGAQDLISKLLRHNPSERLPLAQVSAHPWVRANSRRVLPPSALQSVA
Sequence of Serine/threonine-protein kinase PAK 6 (Homo sapiens) (Q9NQU5 whole entry, looked up): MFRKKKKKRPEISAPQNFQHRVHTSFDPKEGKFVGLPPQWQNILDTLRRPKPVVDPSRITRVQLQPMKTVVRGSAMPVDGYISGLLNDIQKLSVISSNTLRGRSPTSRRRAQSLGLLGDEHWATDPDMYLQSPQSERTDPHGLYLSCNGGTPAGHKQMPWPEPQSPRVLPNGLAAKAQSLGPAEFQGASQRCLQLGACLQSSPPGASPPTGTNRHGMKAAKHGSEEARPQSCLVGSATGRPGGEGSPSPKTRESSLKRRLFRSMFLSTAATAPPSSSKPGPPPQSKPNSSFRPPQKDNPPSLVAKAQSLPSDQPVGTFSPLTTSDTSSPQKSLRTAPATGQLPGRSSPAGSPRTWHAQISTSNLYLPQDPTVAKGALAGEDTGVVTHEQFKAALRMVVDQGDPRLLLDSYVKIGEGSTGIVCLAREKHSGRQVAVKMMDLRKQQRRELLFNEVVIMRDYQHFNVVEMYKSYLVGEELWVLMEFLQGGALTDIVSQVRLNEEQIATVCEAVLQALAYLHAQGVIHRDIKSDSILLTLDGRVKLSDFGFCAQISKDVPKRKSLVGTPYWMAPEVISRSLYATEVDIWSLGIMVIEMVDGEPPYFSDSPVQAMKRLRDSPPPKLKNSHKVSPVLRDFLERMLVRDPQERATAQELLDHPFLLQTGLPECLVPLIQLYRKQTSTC
Sequence of Mitogen-activated protein kinase 9 (Homo sapiens) (P45984 whole entry, looked up): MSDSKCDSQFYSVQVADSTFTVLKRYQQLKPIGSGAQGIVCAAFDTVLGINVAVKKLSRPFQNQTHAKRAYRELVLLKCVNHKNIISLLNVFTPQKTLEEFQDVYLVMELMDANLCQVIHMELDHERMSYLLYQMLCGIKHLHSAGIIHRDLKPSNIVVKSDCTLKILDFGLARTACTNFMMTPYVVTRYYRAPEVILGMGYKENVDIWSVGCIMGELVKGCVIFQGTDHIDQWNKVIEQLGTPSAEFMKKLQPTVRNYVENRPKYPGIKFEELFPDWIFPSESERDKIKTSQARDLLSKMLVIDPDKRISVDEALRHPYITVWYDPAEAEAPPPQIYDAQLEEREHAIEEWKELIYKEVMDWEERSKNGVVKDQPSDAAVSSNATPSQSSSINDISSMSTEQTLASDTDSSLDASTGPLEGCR
Sequence of Glycogen synthase kinase-3 beta (Homo sapiens) (P49841 whole entry, looked up): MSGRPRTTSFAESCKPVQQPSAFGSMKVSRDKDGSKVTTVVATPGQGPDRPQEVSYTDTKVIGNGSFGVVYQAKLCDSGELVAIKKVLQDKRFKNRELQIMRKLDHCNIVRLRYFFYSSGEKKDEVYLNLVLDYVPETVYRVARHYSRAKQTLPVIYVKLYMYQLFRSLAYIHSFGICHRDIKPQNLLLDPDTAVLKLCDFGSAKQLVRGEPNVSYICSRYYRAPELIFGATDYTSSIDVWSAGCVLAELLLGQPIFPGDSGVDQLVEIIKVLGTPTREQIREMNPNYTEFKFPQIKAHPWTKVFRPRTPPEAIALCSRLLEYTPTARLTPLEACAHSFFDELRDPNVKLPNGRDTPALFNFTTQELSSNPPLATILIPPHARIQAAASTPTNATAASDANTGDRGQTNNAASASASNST
Sequence of Calcium/calmodulin-dependent protein kinase type 1 (Homo sapiens) (Q14012 whole entry, looked up): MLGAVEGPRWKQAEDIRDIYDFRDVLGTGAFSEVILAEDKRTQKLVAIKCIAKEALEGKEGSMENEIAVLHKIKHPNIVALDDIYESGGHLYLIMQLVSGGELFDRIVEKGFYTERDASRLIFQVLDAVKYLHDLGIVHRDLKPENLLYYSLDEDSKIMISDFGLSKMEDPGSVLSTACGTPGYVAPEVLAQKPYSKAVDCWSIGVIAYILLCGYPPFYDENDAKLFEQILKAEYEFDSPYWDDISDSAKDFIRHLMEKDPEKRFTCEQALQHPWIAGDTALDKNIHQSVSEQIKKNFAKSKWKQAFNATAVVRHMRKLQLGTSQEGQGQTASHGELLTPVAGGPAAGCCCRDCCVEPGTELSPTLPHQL
Sequence of Serine/threonine-protein kinase Chk2 (Homo sapiens) (O96017 whole entry): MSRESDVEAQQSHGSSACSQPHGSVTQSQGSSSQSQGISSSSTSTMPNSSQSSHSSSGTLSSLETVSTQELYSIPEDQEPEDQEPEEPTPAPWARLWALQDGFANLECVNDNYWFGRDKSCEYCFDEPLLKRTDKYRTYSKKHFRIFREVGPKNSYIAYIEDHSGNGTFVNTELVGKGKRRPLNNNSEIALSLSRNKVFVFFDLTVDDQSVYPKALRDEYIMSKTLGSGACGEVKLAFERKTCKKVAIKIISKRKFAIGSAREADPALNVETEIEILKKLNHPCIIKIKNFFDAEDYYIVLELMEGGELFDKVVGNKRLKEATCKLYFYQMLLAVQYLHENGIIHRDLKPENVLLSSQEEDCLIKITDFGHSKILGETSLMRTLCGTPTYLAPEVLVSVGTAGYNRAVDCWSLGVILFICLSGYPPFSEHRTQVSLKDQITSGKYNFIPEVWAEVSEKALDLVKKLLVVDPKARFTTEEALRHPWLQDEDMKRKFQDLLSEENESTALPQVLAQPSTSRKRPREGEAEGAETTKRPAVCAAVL

On to `O=C(Nc1cc(C(F)(F)F)ccc1F)Nc1ccc(Oc2ccnc3[nH]c(=O)[nH]c23)c2ccccc12`, for which the residual activity in test [1] was 50%; in test [2] it was 100%; in test [3], 75%; in test [4], 100%; in test [5], 100%; in test [6] it was 100%. For the same compound, the residual activity in test [7] came out at 100%; in test [8], 100%; in test [9], 75%; in test [10], 75%; in [11], 100%; in test [12] it was 75%. In addition, the residual activity in test [13] and in [14] was less than 25% throughout.
As for `CSc1cc(Oc2ccnc3[nH]c(=O)[nH]c23)ccc1NC(=O)Nc1cccc(C(F)(F)F)c1`, the residual activity in test [1], in test [2], in test [3], in [4], in test [5] and in test [6] was 100% in each case. Also, the residual activity is 100% in test [7]; 100% in test [8]; 75% in test [9]; 75% in [10]; 100% in test [11]; 100% in test [12]. The residual activity in [13] and in test [14] was less than 25% each time.
Take `CC(C)(C)c1cccc(NC(=O)Nc2ccc(Oc3ccnc4[nH]c(=O)[nH]c34)c3ccccc23)c1`: the residual activity in test [1] is less than 25%; in test [2], 75%; in [3] it was 75%; in test [4], 75%; in test [5] it was 100%; in [6], 100%. Besides, the residual activity worked out at 100% in test [7]; 100% in test [8]; 75% in test [9]; 75% in [10]; 100% in test [11]; 100% in test [12]. In addition, the residual activity in test [13] amounted to 75%; in test [14], 50%.

(Values after ChEMBL document CHEMBL1136991, “Novel potent BRAF inhibitors: toward 1 nM compounds through optimization of the central phenyl ring” (J Med Chem, 2009).)
